Laboratory results published in PubChem BioAssay (NCI).
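How tested: cells in 96-well plates exposed to compound for 48 hours at five concentrations. GI50: concentration for 50% inhibition of growth. TGI: total growth inhibition.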

Assays:
Assay in all cases: NCI tumour cell line growth inhibition, 48 h
BT-549 breast = system: BT-549 breast
SK-MEL-2 melanoma = system: SK-MEL-2 melanoma
SNB-19 CNS = system: SNB-19 CNS
MDA-MB-435 = system: MDA-MB-435
TK-10 renal = system: TK-10 renal
SF-539 CNS = system: SF-539 CNS
A498 renal = system: A498 renal
T-47D breast = system: T-47D breast
SW-620 colon = system: SW-620 colon
K-562 leukemia = system: K-562 leukemia
CCRF-CEM leukemia = system: CCRF-CEM leukemia
HS 578T breast = system: HS 578T breast
MDA-MB-468 breast = system: MDA-MB-468 breast
NCI-H23 lung = system: NCI-H23 lung
RPMI-8226 leukemia = system: RPMI-8226 leukemia
OVCAR-4 ovarian = system: OVCAR-4 ovarian
HL-60(TB) leukemia = system: HL-60(TB) leukemia
RXF 393 renal = system: RXF 393 renal
DU-145 prostate = system: DU-145 prostate
NCI-H226 lung = system: NCI-H226 lung
NCI-H522 lung = system: NCI-H522 lung
HT29 colon = system: HT29 colon
EKVX NSCLC = system: EKVX NSCLC
HCT-15 colon = system: HCT-15 colon
A549 NSCLC = system: A549 NSCLC
PC-3 prostate = system: PC-3 prostate
UACC-257 melanoma = system: UACC-257 melanoma
UACC-62 melanoma = system: UACC-62 melanoma
IGROV1 ovarian = system: IGROV1 ovarian
HCC-2998 colon = system: HCC-2998 colon
MCF7 breast = system: MCF7 breast
SK-MEL-5 melanoma = system: SK-MEL-5 melanoma
M14 melanoma = system: M14 melanoma
HCT-116 colon = system: HCT-116 colon
ACHN renal = system: ACHN renal
OVCAR-8 ovarian = system: OVCAR-8 ovarian
MOLT-4 leukemia = system: MOLT-4 leukemia
SK-MEL-28 melanoma = system: SK-MEL-28 melanoma
LOX IMVI melanoma = system: LOX IMVI melanoma
786-0 renal = system: 786-0 renal
SNB-75 CNS = system: SNB-75 CNS
MALME-3M melanoma = system: MALME-3M melanoma
UO-31 renal = system: UO-31 renal
CAKI-1 renal = system: CAKI-1 renal
SF-268 CNS = system: SF-268 CNS
OVCAR-3 ovarian = system: OVCAR-3 ovarian
NCI/ADR-RES ovarian = system: NCI/ADR-RES ovarian
MDA-MB-231 breast = system: MDA-MB-231 breast
SK-OV-3 ovarian = system: SK-OV-3 ovarian
KM12 colon = system: KM12 colon
HOP-92 NSCLC = system: HOP-92 NSCLC
COLO 205 colon = system: COLO 205 colon
SN12C renal = system: SN12C renal
OVCAR-5 ovarian = system: OVCAR-5 ovarian
U251 CNS = system: U251 CNS
SF-295 CNS = system: SF-295 CNS
NCI-H460 lung = system: NCI-H460 lung

COc1ccc(NC(=O)CSc2nnc(-c3ccc(-c4nc5ccccc5[nH]4)cc3)o2)cc1
GI50 (BT-549 breast): 1.94 µM | TGI (BT-549 breast): 4.09 µM | GI50 (SK-MEL-2 melanoma): 2.07 µM | TGI (SK-MEL-2 melanoma): 4.45 µM | GI50 (SNB-19 CNS): 2.04 µM | TGI (SNB-19 CNS): 4.04 µM | GI50 (MDA-MB-435): 2.08 µM | TGI (MDA-MB-435): 4.55 µM | GI50 (TK-10 renal): 3.09 µM | TGI (TK-10 renal): 10.8 µM | GI50 (SF-539 CNS): 1.79 µM | TGI (SF-539 CNS): 3.42 µM | GI50 (A498 renal): 2.1 µM | TGI (A498 renal): 5.75 µM | GI50 (T-47D breast): 3.1 µM | TGI (T-47D breast): 9.51 µM | GI50 (SW-620 colon): 2.34 µM | TGI (SW-620 colon): 6.39 µM | GI50 (K-562 leukemia): 3.65 µM | TGI (K-562 leukemia): > 100 µM | GI50 (CCRF-CEM leukemia): 3.03 µM | TGI (CCRF-CEM leukemia): > 100 µM | GI50 (HS 578T breast): 2.56 µM | TGI (HS 578T breast): 7.29 µM | GI50 (MDA-MB-468 breast): 2.51 µM | TGI (MDA-MB-468 breast): 6.44 µM | GI50 (NCI-H23 lung): 1.93 µM | TGI (NCI-H23 lung): 3.84 µM | GI50 (RPMI-8226 leukemia): 3.42 µM | TGI (RPMI-8226 leukemia): > 100 µM | GI50 (OVCAR-4 ovarian): 2.5 µM | TGI (OVCAR-4 ovarian): 6.64 µM | GI50 (HL-60(TB) leukemia): 5.04 µM | TGI (HL-60(TB) leukemia): > 100 µM | GI50 (RXF 393 renal): 1.84 µM | TGI (RXF 393 renal): 3.56 µM | GI50 (DU-145 prostate): 2.77 µM | TGI (DU-145 prostate): 7.62 µM | GI50 (NCI-H226 lung): 1.92 µM | TGI (NCI-H226 lung): 4.17 µM | GI50 (NCI-H522 lung): 1.72 µM | TGI (NCI-H522 lung): 3.4 µM | GI50 (HT29 colon): 1.82 µM | TGI (HT29 colon): 3.42 µM | GI50 (EKVX NSCLC): 1.98 µM | TGI (EKVX NSCLC): 4.21 µM | GI50 (HCT-15 colon): 2.3 µM | TGI (HCT-15 colon): 5.67 µM | GI50 (A549 NSCLC): 1.97 µM | TGI (A549 NSCLC): 4.22 µM | GI50 (PC-3 prostate): 2.06 µM | TGI (PC-3 prostate): 3.96 µM | GI50 (UACC-257 melanoma): 1.92 µM | TGI (UACC-257 melanoma): 3.93 µM | GI50 (UACC-62 melanoma): 1.63 µM | TGI (UACC-62 melanoma): 3.04 µM | GI50 (IGROV1 ovarian): 2.17 µM | TGI (IGROV1 ovarian): 5.06 µM | GI50 (HCC-2998 colon): 12.1 µM | TGI (HCC-2998 colon): 34.6 µM | GI50 (MCF7 breast): 2.35 µM | TGI (MCF7 breast): 6.4 µM | GI50 (SK-MEL-5 melanoma): 1.91 µM | TGI (SK-MEL-5 melanoma): 3.94 µM | GI50 (M14 melanoma): 2.3 µM | TGI (M14 melanoma): 5.27 µM | GI50 (HCT-116 colon): 2.38 µM | TGI (HCT-116 colon): 5.9 µM | GI50 (ACHN renal): 2.4 µM | TGI (ACHN renal): 5.86 µM | GI50 (OVCAR-8 ovarian): 1.85 µM | TGI (OVCAR-8 ovarian): 3.66 µM | GI50 (MOLT-4 leukemia): 3.23 µM | TGI (MOLT-4 leukemia): > 100 µM | GI50 (SK-MEL-28 melanoma): 1.76 µM | TGI (SK-MEL-28 melanoma): 3.21 µM | GI50 (LOX IMVI melanoma): 1.81 µM | TGI (LOX IMVI melanoma): 3.38 µM | GI50 (786-0 renal): 1.92 µM | TGI (786-0 renal): 3.63 µM | GI50 (SNB-75 CNS): 1.83 µM | TGI (SNB-75 CNS): 3.89 µM | GI50 (MALME-3M melanoma): 1.69 µM | TGI (MALME-3M melanoma): 3.14 µM | GI50 (UO-31 renal): 2.8 µM | TGI (UO-31 renal): 10.4 µM | GI50 (CAKI-1 renal): 1.89 µM | TGI (CAKI-1 renal): 3.83 µM | GI50 (SF-268 CNS): 2.02 µM | TGI (SF-268 CNS): 4.2 µM | GI50 (OVCAR-3 ovarian): 2.29 µM | TGI (OVCAR-3 ovarian): 4.56 µM | GI50 (NCI/ADR-RES ovarian): 9.32 µM | TGI (NCI/ADR-RES ovarian): > 100 µM | GI50 (MDA-MB-231 breast): 1.89 µM | TGI (MDA-MB-231 breast): 3.45 µM | GI50 (SK-OV-3 ovarian): 2.36 µM | TGI (SK-OV-3 ovarian): 4.94 µM | GI50 (KM12 colon): 3.49 µM | TGI (KM12 colon): 13.3 µM | GI50 (HOP-92 NSCLC): 1.77 µM | TGI (HOP-92 NSCLC): 3.79 µM | GI50 (COLO 205 colon): 4.51 µM | TGI (COLO 205 colon): 19.3 µM | GI50 (SN12C renal): 1.84 µM | TGI (SN12C renal): 3.59 µM | GI50 (OVCAR-5 ovarian): 2.28 µM | TGI (OVCAR-5 ovarian): 5.23 µM | GI50 (U251 CNS): 1.83 µM | TGI (U251 CNS): 3.36 µM | GI50 (SF-295 CNS): 1.79 µM | TGI (SF-295 CNS): 3.34 µM | GI50 (NCI-H460 lung): 2.01 µM | TGI (NCI-H460 lung): 4.32 µM
